Measurements taken from patent US4051237A, “Glycopeptide antibiotics Bu-2231 A and B and process for producing same” (priority 1975, dated 1977).
In brackets after ≈: the same amount, converted by molar mass.

Columns and labels:
Type in all cases: cell-based
E. coli A20683 = experiment: MIC by two-fold agar dilution; conditions: Mueller-Hinton agar, unit assumed
M. flavus D12 = experiment: MIC by two-fold agar dilution; conditions: Mueller-Hinton agar, unit assumed
[1] = test system: F. moniliforme NRRL A2284; experiment: MIC by two-fold agar dilution; conditions: Fm-1 F. moniliforme NRRL A2284; sabouraud agar; unit assumed
S. aureus Smith A9537 = experiment: MIC by two-fold agar dilution; conditions: Mueller-Hinton agar, unit assumed
Mucor sp. = experiment: MIC by two-fold agar dilution; conditions: My-1 Mucor sp.; sabouraud agar; unit assumed
Mycobacterium 607, D87 = experiment: MIC by two-fold agar dilution; conditions: Medium #1001, unit assumed
P. aeruginosa A20741 = experiment: MIC by two-fold agar dilution; conditions: Mueller-Hinton agar, unit assumed
S. marcescens A20460 = experiment: MIC by two-fold agar dilution; conditions: Mueller-Hinton agar, unit assumed
K. pneumoniae A9678 = experiment: MIC by two-fold agar dilution; conditions: Mueller-Hinton agar, unit assumed
P. rettgeri A15167 = experiment: MIC by two-fold agar dilution; conditions: Mueller-Hinton agar, unit assumed
E. coli Juhl A15119 = experiment: MIC by two-fold agar dilution; conditions: Mueller-Hinton agar, unit assumed
E. coli NIHJ = experiment: MIC by two-fold agar dilution; conditions: Mueller-Hinton agar, unit assumed
C. albicans IAM 4888 = experiment: MIC by two-fold agar dilution; conditions: Ca-1 C. albicans IAM 4888; sabouraud agar; unit assumed
C. krusei IAM 4489 = experiment: MIC by two-fold agar dilution; conditions: Ck-1 C. krusei IAM 4489; sabouraud agar; unit assumed
P. aeruginosa A9930 = experiment: MIC by two-fold agar dilution; conditions: Mueller-Hinton agar, unit assumed
C. neoformans (Cn-1) = experiment: MIC by two-fold agar dilution; conditions: Cn-1 C. neoformans; sabouraud agar; unit assumed
K. pneumoniae A20328 = experiment: MIC by two-fold agar dilution; conditions: Mueller-Hinton agar, unit assumed
Mycobacterium phlei, D88 = experiment: MIC by two-fold agar dilution; conditions: Medium #1001, unit assumed
T. rubrum D-55 = experiment: MIC by two-fold agar dilution; conditions: Tr-1 T. rubrum D-55; sabouraud agar; unit assumed
B. cereus ATCC 10702A = experiment: MIC by two-fold agar dilution; conditions: Mueller-Hinton agar, unit assumed
M. canis D-51 = experiment: MIC by two-fold agar dilution; conditions: Mc-1 M. canis D-51; sabouraud agar; unit assumed
[2] = test system: Mycobacterium ranae, ATCC110; experiment: MIC by two-fold agar dilution; conditions: Medium #1001, unit assumed
S. lutea PCI-1001 = experiment: MIC by two-fold agar dilution; conditions: Mueller-Hinton agar, unit assumed
Hormodendrum sp. = experiment: MIC by two-fold agar dilution; conditions: Hy-1 Hormodendrum sp.; sabouraud agar; unit assumed
S. aureus #193 = experiment: MIC by two-fold agar dilution; conditions: Mueller-Hinton agar, unit assumed
A. niger var Tieghem = experiment: MIC by two-fold agar dilution; conditions: An-1 A. niger var Tieghem; sabouraud agar; unit assumed
S. cerevisiae IAM 4009 = experiment: MIC by two-fold agar dilution; conditions: Sc-2 S. cerevisiae IAM 4009; sabouraud agar; unit assumed
P. stuartii A20734 = experiment: MIC by two-fold agar dilution; conditions: Mueller-Hinton agar, unit assumed
P. aeruginosa A 9923 = experiment: MIC by two-fold agar dilution; conditions: Mueller-Hinton agar, unit assumed
Sporotrichum sp. = experiment: MIC by two-fold agar dilution; conditions: Sy-1 Sporotrichum sp.; sabouraud agar; unit assumed
C. albicans Nystatin-R = experiment: MIC by two-fold agar dilution; conditions: Ca-2 C. albicans Nystatin-R; sabouraud agar; unit assumed
P. stuartii A20894 = experiment: MIC by two-fold agar dilution; conditions: Mueller-Hinton agar, unit assumed
B. mycoides "0" = conditions: Mueller-Hinton agar, unit assumed
T. asteroides = experiment: MIC by two-fold agar dilution; conditions: Ta-1 T. asteroides; sabouraud agar; unit assumed
S. cerevisiae ATCC 9763 = experiment: MIC by two-fold agar dilution; conditions: Sc-1 S. cerevisiae ATCC 9763; sabouraud agar; unit assumed
P. aeruginosa H9, D113 = experiment: MIC by two-fold agar dilution; conditions: Mueller-Hinton agar, unit assumed
S. marcescens A20333 = experiment: MIC by two-fold agar dilution; conditions: Mueller-Hinton agar, unit assumed
S. aureus BX-1633,A9606 = experiment: MIC by two-fold agar dilution; conditions: Mueller-Hinton agar, unit assumed
E. coli K-12 A9632 = experiment: MIC by two-fold agar dilution; conditions: Mueller-Hinton agar, unit assumed
E. cloacae A21006 = experiment: MIC by two-fold agar dilution; conditions: Mueller-Hinton agar, unit assumed
P morganii A9553 = experiment: MIC by two-fold agar dilution; conditions: Mueller-Hinton agar, unit assumed
A. fumigatus IAM 2530 = experiment: MIC by two-fold agar dilution; conditions: Af-1 A. fumigatus IAM 2530; sabouraud agar; unit assumed
B. sphaericus #122 = experiment: MIC by two-fold agar dilution; conditions: Mueller-Hinton agar, unit assumed
S. marcescens A21235 = experiment: MIC by two-fold agar dilution; conditions: Mueller-Hinton agar, unit assumed
[3] = test system: C. albicans #520 Yale A9540; experiment: MIC by two-fold agar dilution; conditions: Ca-4 C. albicans #520 Yale A9540; sabouraud agar; unit assumed
C. krusei #96 A15052 = experiment: MIC by two-fold agar dilution; conditions: Ck-2 C. krusei #96 A15052; sabouraud agar; unit assumed

Compound: Cc1c(N)nc([C@H](CC(N)=O)NC[C@H](N)C(N)=O)nc1C(=O)N[C@H](C(=O)N[C@H](C)[C@@H](O)CC(=O)N[C@H](C(=O)NC(O[C@@H]1O[C@@H](C)[C@@H](N)[C@@H](O)[C@H]1O)C(O)c1nc(-c2nc(C(=O)NCCCC(N)CC(=O)NCCCNCCCCN)cs2)cs1)[C@@H](C)O)[C@H](O[C@@H]1O[C@@H](CO)[C@@H](O)[C@H](O)[C@@H]1O[C@H]1O[C@H](CO)[C@@H](O)[C@H](OC(N)=O)[C@@H]1O)c1c[nH]cn1 (some centres unmarked) [Bu-2231 A Cu-free]
- MIC (E. coli A20683): 6.3 µg/mL (≈ 3.64 µM)
- MIC (M. flavus D12): 0.2 µg/mL (≈ 0.115 µM)
- MIC [1]: 0.8 µg/mL (≈ 0.462 µM)
- MIC (S. aureus Smith A9537): 0.1 µg/mL (≈ 0.0577 µM)
- MIC (Mucor sp.): 6.3 µg/mL (≈ 3.64 µM)
- MIC (Mycobacterium 607, D87): 0.2 µg/mL (≈ 0.115 µM)
- MIC (P. aeruginosa A20741): 0.2 µg/mL (≈ 0.115 µM)
- MIC (S. marcescens A20460): 0.4 µg/mL (≈ 0.231 µM)
- MIC (K. pneumoniae A9678): 0.2 µg/mL (≈ 0.115 µM)
- MIC (P. rettgeri A15167): 0.4 µg/mL (≈ 0.231 µM)
- MIC (E. coli Juhl A15119): 0.1 µg/mL (≈ 0.0577 µM)
- MIC (E. coli NIHJ): 0.025 µg/mL (≈ 0.0144 µM)
- MIC (C. albicans IAM 4888): 0.8 µg/mL (≈ 0.462 µM)
- MIC (C. krusei IAM 4489): 0.8 µg/mL (≈ 0.462 µM)
- MIC (P. aeruginosa A9930): 0.4 µg/mL (≈ 0.231 µM)
- MIC (C. neoformans (Cn-1)): 0.4 µg/mL (≈ 0.231 µM)
- MIC (K. pneumoniae A20328): 0.8 µg/mL (≈ 0.462 µM)
- MIC (Mycobacterium phlei, D88): 0.05 µg/mL (≈ 0.0289 µM)
- MIC (T. rubrum D-55): 3.1 µg/mL (≈ 1.79 µM)
- MIC (B. cereus ATCC 10702A): 0.2 µg/mL (≈ 0.115 µM)
- MIC (M. canis D-51): 3.1 µg/mL (≈ 1.79 µM)
- MIC [2]: 0.1 µg/mL (≈ 0.0577 µM)
- MIC (S. lutea PCI-1001): 0.2 µg/mL (≈ 0.115 µM)
- MIC (Hormodendrum sp.): 0.8 µg/mL (≈ 0.462 µM)
- MIC (S. aureus #193): 0.1 µg/mL (≈ 0.0577 µM)
- MIC (A. niger var Tieghem): 0.2 µg/mL (≈ 0.115 µM)
- MIC (S. cerevisiae IAM 4009): 0.4 µg/mL (≈ 0.231 µM)
- MIC (P. stuartii A20734): 0.4 µg/mL (≈ 0.231 µM)
- MIC (P. aeruginosa A 9923): 50 µg/mL (≈ 28.9 µM)
- MIC (Sporotrichum sp.): 3.1 µg/mL (≈ 1.79 µM)
- MIC (C. albicans Nystatin-R): 0.8 µg/mL (≈ 0.462 µM)
- MIC (P. stuartii A20894): 0.4 µg/mL (≈ 0.231 µM)
- MIC (B. mycoides "0"): 0.2 µg/mL (≈ 0.115 µM)
- MIC (T. asteroides): 3.1 µg/mL (≈ 1.79 µM)
- MIC (S. cerevisiae ATCC 9763): 0.4 µg/mL (≈ 0.231 µM)
- MIC (P. aeruginosa H9, D113): > 100 µg/mL
- MIC (S. marcescens A20333): 0.2 µg/mL (≈ 0.115 µM)
- MIC (S. aureus BX-1633,A9606): 0.2 µg/mL (≈ 0.115 µM)
- MIC (E. coli K-12 A9632): 0.05 µg/mL (≈ 0.0289 µM)
- MIC (E. cloacae A21006): 1.6 µg/mL (≈ 0.924 µM)
- MIC (P morganii A9553): 0.4 µg/mL (≈ 0.231 µM)
- MIC (A. fumigatus IAM 2530): 0.8 µg/mL (≈ 0.462 µM)
- MIC (B. sphaericus #122): < 0.0063 µg/mL
- MIC (S. marcescens A21235): 0.2 µg/mL (≈ 0.115 µM)
- MIC [3]: 3.1 µg/mL (≈ 1.79 µM)
- MIC (C. krusei #96 A15052): 0.8 µg/mL (≈ 0.462 µM)

Compound: Bleomycin [reference compound]
- MIC (E. coli A20683): > 100 µg/mL
- MIC (M. flavus D12): 50 µg/mL
- MIC [1]: > 100 µg/mL
- MIC (S. aureus Smith A9537): 3.1 µg/mL
- MIC (Mucor sp.): 3.1 µg/mL
- MIC (Mycobacterium 607, D87): 0.8 µg/mL
- MIC (P. aeruginosa A20741): 12.5 µg/mL
- MIC (S. marcescens A20460): > 100 µg/mL
- MIC (K. pneumoniae A9678): 6.3 µg/mL
- MIC (P. rettgeri A15167): > 100 µg/mL
- MIC (E. coli Juhl A15119): 1.6 µg/mL
- MIC (E. coli NIHJ): 0.8 µg/mL
- MIC (C. albicans IAM 4888): 12.5 µg/mL
- MIC (C. krusei IAM 4489): 12.5 µg/mL
- MIC (P. aeruginosa A9930): > 100 µg/mL
- MIC (C. neoformans (Cn-1)): 1.6 µg/mL
- MIC (K. pneumoniae A20328): 25 µg/mL
- MIC (Mycobacterium phlei, D88): 0.2 µg/mL
- MIC (T. rubrum D-55): > 100 µg/mL
- MIC (B. cereus ATCC 10702A): 1.6 µg/mL
- MIC (M. canis D-51): > 100 µg/mL
- MIC [2]: 0.8 µg/mL
- MIC (S. lutea PCI-1001): 100 µg/mL
- MIC (Hormodendrum sp.): 0.8 µg/mL
- MIC (S. aureus #193): 12.5 µg/mL
- MIC (A. niger var Tieghem): 0.4 µg/mL
- MIC (S. cerevisiae IAM 4009): 0.4 µg/mL
- MIC (P. stuartii A20734): > 100 µg/mL
- MIC (P. aeruginosa A 9923): > 100 µg/mL
- MIC (Sporotrichum sp.): > 100 µg/mL
- MIC (C. albicans Nystatin-R): 12.5 µg/mL
- MIC (P. stuartii A20894): 3.1 µg/mL
- MIC (B. mycoides "0"): 12.5 µg/mL
- MIC (T. asteroides): > 100 µg/mL
- MIC (S. cerevisiae ATCC 9763): 0.8 µg/mL
- MIC (P. aeruginosa H9, D113): > 100 µg/mL
- MIC (S. marcescens A20333): > 100 µg/mL
- MIC (S. aureus BX-1633,A9606): 6.3 µg/mL
- MIC (E. coli K-12 A9632): 0.8 µg/mL
- MIC (E. cloacae A21006): > 100 µg/mL
- MIC (P morganii A9553): > 100 µg/mL
- MIC (A. fumigatus IAM 2530): 0.8 µg/mL
- MIC (B. sphaericus #122): 6.3 µg/mL
- MIC (S. marcescens A21235): 100 µg/mL
- MIC [3]: > 100 µg/mL
- MIC (C. krusei #96 A15052): 3.1 µg/mL
